Values of other authors, collected in article PMC2785207 (The Journal of Biological Chemistry, 2009).

How the values were obtained:
[1] = test system: Sir2; conditions: reaction product; reacts with the O-alkylamidate to regenerate NAD+ and acetyl lysine; ref [14], [15]
[2] = test system: CobB; conditions: E. coli sirtuin CobB; ref [17], [18]

| SMILES | inhibition of the Sir2 deacetylation reaction [1] | ribosylation by CobB [2] |
| --- | --- | --- |
| NC(=O)c1cccnc1 [nicotinamide] | inhibited | – |
| Cc1cc2nc[nH]c2cc1C [5,6-dimethylbenzimidazole] | – | ribosylates |
